The record followed here is BindingDB's records for doi:10.1016/j.bmcl.2006.07.074 (Boehringer Ingelheim Pharmaceuticals, 2006).

The experiment addresses DNA-directed RNA polymerase II (Bos taurus). The experiment can be described thus: Inhibition of calf thymus DNA dependent RNA polymerase 2.

In turn, `O=C(O)c1ccc2c(C3CCCCC3)c(-c3ccoc3)[nH]c2c1` [3-cyclohexyl-2-(furan-3-yl)-1H-indole-6-carboxylic acid] had an IC50 greater than 125 µM.
